Data set [1] has as its target T1, Acetylcholinesterase (Bos taurus, UniProt P23795).
T1 sequence (P23795 whole entry): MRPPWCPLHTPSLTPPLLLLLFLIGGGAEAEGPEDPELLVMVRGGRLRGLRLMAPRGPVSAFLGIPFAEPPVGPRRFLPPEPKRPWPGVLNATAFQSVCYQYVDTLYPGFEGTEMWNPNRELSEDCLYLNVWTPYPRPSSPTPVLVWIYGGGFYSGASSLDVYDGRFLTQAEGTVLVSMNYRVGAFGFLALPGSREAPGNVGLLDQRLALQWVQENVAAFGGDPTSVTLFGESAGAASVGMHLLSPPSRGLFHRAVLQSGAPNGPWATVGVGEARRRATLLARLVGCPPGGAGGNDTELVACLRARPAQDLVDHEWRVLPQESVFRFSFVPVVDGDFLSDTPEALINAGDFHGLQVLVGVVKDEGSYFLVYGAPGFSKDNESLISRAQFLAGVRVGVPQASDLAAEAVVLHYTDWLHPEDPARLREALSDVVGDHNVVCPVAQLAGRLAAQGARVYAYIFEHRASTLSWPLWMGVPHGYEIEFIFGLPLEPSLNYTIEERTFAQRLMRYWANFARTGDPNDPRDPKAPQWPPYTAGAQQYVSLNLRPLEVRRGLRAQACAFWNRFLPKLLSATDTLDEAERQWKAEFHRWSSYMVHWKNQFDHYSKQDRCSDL
Description: Inhibition of AchE from bovine erythrocytes

Data set [2] concerns the target Butyrylcholinesterase (Equus caballus, UniProt Q9N1N9).
Description: Inhibition of BuChE from horse serum
Data set [3] can be described thus: in vitro. The following applies: pig, PAMPA. For orientation: In PAMPA a lipid-coated filter parts donor from acceptor wells.
Description: Permeability in BBB by PAMPA using a lipid extract of porcine brain
Data set [4] has as its target Acetylcholinesterase (Homo sapiens, UniProt P22303).
Data set [5] has as its target Cholinesterase (Homo sapiens, UniProt P06276).
Description: Inhibition of human BuChE

The results in this text go back to ChEMBL document CHEMBL1147732, “Novel tacrine-melatonin hybrids as dual-acting drugs for Alzheimer disease, with improved acetylcholinesterase inhibitory and antioxidant properties” (J Med Chem, 2006).

Sequence of Butyrylcholinesterase (Q9N1N9 whole entry): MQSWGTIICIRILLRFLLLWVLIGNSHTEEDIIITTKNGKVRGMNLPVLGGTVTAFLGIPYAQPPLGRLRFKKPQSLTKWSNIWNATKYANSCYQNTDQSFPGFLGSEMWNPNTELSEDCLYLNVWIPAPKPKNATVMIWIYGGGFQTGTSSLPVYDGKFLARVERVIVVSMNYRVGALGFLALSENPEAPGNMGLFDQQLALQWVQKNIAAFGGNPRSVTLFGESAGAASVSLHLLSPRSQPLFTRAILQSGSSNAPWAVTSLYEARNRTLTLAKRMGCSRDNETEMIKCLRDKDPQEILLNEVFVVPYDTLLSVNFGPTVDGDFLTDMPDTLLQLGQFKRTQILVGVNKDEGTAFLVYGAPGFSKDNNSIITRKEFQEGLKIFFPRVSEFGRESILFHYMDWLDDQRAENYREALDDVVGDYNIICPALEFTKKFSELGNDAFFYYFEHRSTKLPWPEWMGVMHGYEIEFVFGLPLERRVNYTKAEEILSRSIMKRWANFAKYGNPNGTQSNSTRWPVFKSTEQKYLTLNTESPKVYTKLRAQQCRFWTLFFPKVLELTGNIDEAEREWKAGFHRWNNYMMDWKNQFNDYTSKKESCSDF
Sequence of Acetylcholinesterase (Homo sapiens, UniProt P22303) (P22303 whole entry): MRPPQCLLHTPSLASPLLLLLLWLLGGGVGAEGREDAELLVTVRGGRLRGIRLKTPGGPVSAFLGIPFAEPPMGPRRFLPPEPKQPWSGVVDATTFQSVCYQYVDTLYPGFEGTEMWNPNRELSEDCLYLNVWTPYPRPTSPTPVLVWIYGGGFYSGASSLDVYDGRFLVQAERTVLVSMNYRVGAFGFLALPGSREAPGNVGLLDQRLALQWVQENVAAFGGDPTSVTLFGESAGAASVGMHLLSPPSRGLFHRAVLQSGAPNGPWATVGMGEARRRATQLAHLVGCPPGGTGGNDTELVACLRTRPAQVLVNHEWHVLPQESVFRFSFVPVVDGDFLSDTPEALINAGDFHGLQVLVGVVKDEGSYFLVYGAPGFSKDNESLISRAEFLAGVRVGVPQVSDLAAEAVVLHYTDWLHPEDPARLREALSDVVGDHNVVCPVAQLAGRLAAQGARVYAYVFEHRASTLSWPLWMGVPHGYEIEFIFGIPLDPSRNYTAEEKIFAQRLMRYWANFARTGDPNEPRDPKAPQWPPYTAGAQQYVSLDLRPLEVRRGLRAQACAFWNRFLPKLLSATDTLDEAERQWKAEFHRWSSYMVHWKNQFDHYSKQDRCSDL
Sequence of Cholinesterase (P06276 whole entry): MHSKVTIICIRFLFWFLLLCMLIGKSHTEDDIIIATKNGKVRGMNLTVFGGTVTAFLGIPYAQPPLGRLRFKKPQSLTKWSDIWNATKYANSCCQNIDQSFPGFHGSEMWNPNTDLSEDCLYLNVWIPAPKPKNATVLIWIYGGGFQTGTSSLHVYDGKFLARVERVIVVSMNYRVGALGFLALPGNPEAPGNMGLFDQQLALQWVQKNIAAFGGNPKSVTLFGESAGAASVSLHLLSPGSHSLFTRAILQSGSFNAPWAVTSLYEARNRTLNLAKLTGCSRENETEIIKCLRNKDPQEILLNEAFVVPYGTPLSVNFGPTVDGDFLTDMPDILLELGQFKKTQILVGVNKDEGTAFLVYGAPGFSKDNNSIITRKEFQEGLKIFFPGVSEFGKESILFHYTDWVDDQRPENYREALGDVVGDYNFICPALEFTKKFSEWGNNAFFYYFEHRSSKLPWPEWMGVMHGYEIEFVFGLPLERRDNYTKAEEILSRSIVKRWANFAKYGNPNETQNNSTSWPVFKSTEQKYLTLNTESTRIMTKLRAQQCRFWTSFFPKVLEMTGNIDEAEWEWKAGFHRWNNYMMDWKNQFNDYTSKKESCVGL

One may read the IC50 as the concentration at which inhibition is half-maximal. A high value points to weaker potency in that assay. The term Papp denotes the rate of passage across a membrane or cell layer, normalised by area and donor concentration. In the case of `COc1ccc2[nH]cc(CCNC(=O)CCCCCNc3c4c(nc5ccccc35)CCCC4)c2c1`, the results for the IC50 in data set [1] and in data set [2] were 9 nM and 2 nM, respectively. This compound also displayed a Papp in data set [3] of 77 nm/s.
As for `O=C(CCCCCNc1c2c(nc3cc(Cl)cc(Cl)c13)CCCC2)NCCc1c[nH]c2ccccc12`, the IC50 amounted to 3.5 nM in data set [1] and 8.2 nM in data set [2]. For the same compound, the Papp in data set [3] is 84 nm/s.
For the compound `O=C(CCCCCCNc1c2c(nc3cc(Cl)cc(Cl)c13)CCCC2)NCCc1c[nH]c2ccccc12`, the IC50 in data set [1] was determined as 2 nM; in data set [4], 0.008 nM; in data set [2], 85 nM; in data set [5], 7.8 nM.
As for `O=C(CCCCCCNc1c2c(nc3ccccc13)CCCC2)NCCc1c[nH]c2ccccc12`, the IC50 in data set [1] was found to be 1 nM; in data set [4], 0.5 nM; in data set [2], 0.95 nM; in data set [5] it was 6.8 nM. In data set [3], the Papp is 92 nm/s.
With `COc1ccc2[nH]cc(CCNC(=O)CCCCCNc3c4c(nc5cc(Cl)ccc35)CCCC4)c2c1`, the IC50 turned out to be 12 nM in data set [1] and 55 nM in data set [2].
Regarding `O=C(CCCCCNc1c2c(nc3ccccc13)CCCC2)NCCc1c[nH]c2ccccc12`, the IC50 in data set [1] amounted to 4 nM; in data set [2], 12 nM. Also, the Papp in data set [3] was determined as 110 nm/s.
For the compound `COc1ccc2[nH]cc(CCNC(=O)CCCCCNc3c4c(nc5cccc(Cl)c35)CCCC4)c2c1`, the IC50 in data set [1] worked out at 25 nM; in data set [2], 22 nM. In data set [3], this compound gave a Papp of 89 nm/s.
As to `O=C(CCCCCNc1c2c(nc3cccc(Cl)c13)CCCC2)NCCc1c[nH]c2ccccc12`, the IC50 in data set [1] was determined as 65 nM; in data set [4], 0.87 nM; in data set [2], 15 nM; in data set [5], 23 nM. The Papp in data set [3] came out at 52 nm/s.
For `O=C(CCCCCNc1c2c(nc3ccccc13)CCCC2)NCCc1c[nH]c2ccc(O)cc12`, in that order: 35 nM, 0.45 nM, 3.5 nM, 1 nM and 20 nm/s.
As to `COc1ccc2[nH]cc(CCNC(=O)CCCCCCNc3c4c(nc5cc(Cl)cc(Cl)c35)CCCC4)c2c1`, the IC50 in data set [1] was determined as 5 nM; in data set [4], 0.04 nM; in data set [2], 100 nM; in data set [5], 25 nM.
For `O=C(CCCCCCNc1c2c(nc3cc(Cl)ccc13)CCCC2)NCCc1c[nH]c2ccccc12`, in that order: 0.2 nM, 0.1 nM, 8.1 nM and 35 nM.
On to `COc1ccc2[nH]cc(CCNC(=O)CCCCCCNc3c4c(nc5ccccc35)CCCC4)c2c1`, for which the IC50 in data set [1] was 2.3 nM; in data set [4], 0.65 nM; in data set [2] it was 2.5 nM; in data set [5] it was 3 nM. In data set [3], this compound gave a Papp of 86 nm/s.
With `O=C(CCCCCNc1c2c(nc3cc(Cl)ccc13)CCCC2)NCCc1c[nH]c2ccccc12`, the IC50 in data set [1] was determined as 2 nM; in data set [2], 5.2 nM. The same compound showed a Papp in data set [3] of 77 nm/s.
In the case of `COc1ccc2[nH]cc(CCNC(C)=O)c2c1` [MELATONIN], the half-inhibitory concentration (IC50) in data set [1] and in data set [2] was greater than 100 nM in each case.
